In US20230390292A1, “REGIMENS FOR THE TREATMENT OF HAIR LOSS DISORDERS WITH DEUTERATED JAK INHIBITORS” (Sun Pharmaceutical Industries, Inc., priority 2020, published 2023):

What was measured:
Type in all cases: in vivo, human
[1] = tested on: adult patients with moderate-to-severe alopecia areata; test: Phase 2a trial, safety (treatment emergent adverse events)
Description: (§1) A Phase 2a trial was conducted to evaluate the safety and efficacy of Compound (I) (CTP-543) in subjects with alopecia, with the primary efficacy analysis at week 24. The Phase 2a trial was a double-blind, randomized, placebo-controlled trial to evaluate the safety and efficacy of Compound (I) in adult patients with moderate-to-severe alopecia areata. Patients were sequentially randomized to receive one of three doses of Compound I as the phosphate salt (e.g., 10.5 mg of Compound (I) phosphate salt is equivalent to 8 mg of Compound (I) free base). The doses of Compound (I) were 4, 8 (i.e., about 10.5 mg of Compound (I) phosphate salt), and 12 mg twice daily, and there was also a patient group receiving placebo. The primary outcome measure utilized the severity of alopecia tool (SALT) after 24 weeks of dosing.
In the preliminary analysis of the placebo, 4 mg, and 8 mg groups, there were only 3 Grade 3/4 hematology events, distributed equally across the placebo, 4 mg, and 8 mg groups.

[2] = tested on: adult patients with moderate-to-severe alopecia areata; test: Phase 2a trial, efficacy by severity of alopecia tool (SALT)
From the text: The efficacy of treatment of hair loss disorders such as alopecia areata can be measured in a variety of ways, some of which are known in the art. For example, the “severity of alopecia tool”, otherwise known as SALT, is a validated assessment scale developed by the National Alopecia Areata Foundation working committee—to evaluate the degree of hair loss. See, e.g., Olsen E A, Hordinsky M K, Price V H, et al. Alopecia areata investigational assessment guidelines—Part II. J Am Acad Dermatol 2004: 51: 440-447 (incorporated herein by reference). The SALT score is calculated for a patient by measuring the percentage of hair loss in each of the 4 areas of the scalp and adding the total to achieve a composite score. Hair regrowth is reflected by a decrease in the SALT score. For example, no hair on the scalp would have a SALT score of 100 while complete hair regrowth would be a SALT score of 0. In certain embodiments, methods of treatment as described herein can provide a SALT score improvement of at least 10 points after treatment (for example, from a SALT score of 100 prior to treatment to a SALT score of 90 after treatment). In further embodiments, methods of treatment as described herein can provide a SALT score improvement of at least 20 points, 30 points, 40 points, 50 points, 60 points, 70 points, 80 points, 90 points, or 100 points. In certain embodiments, methods of treatment as described herein can provide after treatment at least a 20% improvement from baseline in the patient's SALT score, or at least a 30% improvement from baseline in the patient's SALT score, or at least a 40% improvement from baseline in the patient's SALT score, or at least a 50% improvement from baseline in the patient's SALT score, or at least a 60% improvement from baseline in the patient's SALT score, or at least a 70% improvement from baseline in the patient's SALT score, or at least a 75% improvement from baseline in the patient's SALT score or at least a 80% improvement from baseline in the patient's SALT score, or at least a 90% improvement from baseline in the patient's SALT score.
as §1
Interim top line analysis for the 4 mg, 8 mg, and 12 mg cohorts is discussed below. The primary endpoint for the study was a 50% relative reduction in SALT between Week 24 and baseline.
58% of patients treated with 12 mg BID (twice daily) and 47% of patients treated with 8 mg BID (twice daily) of CTP-543 achieved a ≥50% reduction in their overall SALT score compared to 8.6% placebo (p<0.001). In addition, 42% of patients treated with 12 mg BID (p<0.001) and 29% of patients treated with 8 mg BID (p<0.05) of CTP-543 achieved a ≥75% reduction in their overall SALT score compared to 7% placebo. Further, 36% of patients treated with 12 mg BID (p<0.001) and 16% of patients treated with 8 mg BID (p<0.05) of CTP-543 achieved a ≥90% reduction in their overall SALT score compared to 2% placebo. 21% of patients treated with 4 mg BID of CTP-543 achieved a ≥50% reduction in their overall SALT score compared to 8.6% placebo (not significant). […] Significant changes in SALT score were observed starting at 12 weeks for the 12 mg and 8 mg cohorts compared to placebo (p<0.05).

[3] = tested on: subjects with alopecia areata; test: Open-label extension study (OLE), SALT score after dose reduction
Description: In an ongoing open-label extension study, subjects who were previously enrolled in a qualifying clinical study (including the study described in Example 1) and received either a total daily dose of 16 mg of Compound (I) (CTP-543, phosphate salt), a total daily dose of 24 mg of CTP-543, or placebo, and completed through the 24-week treatment period, were eligible to enroll in an open-label extension study (OLE) and continue to receive treatment with CTP-543 phosphate. A total of 152 subjects were enrolled in the OLE. In the OLE, subjects received daily treatment with CTP-543 at a dose of 8 mg BID or 12 mg BID (see FIG. 8). Dose adjustments were allowed at the investigator's discretion. One subject enrolled in the OLE, who received a daily dose of 24 mg QD of CTP-543 for approximately 9 months (i.e., the 24-week study period and the initial 3 months of the OLE), experienced hair growth at that dose (SALT score of zero, i.e., full regrowth of hair prior to dose reduction). The subject then had their dose reduced to a daily dose of 8 mg BID of CTP-543 phosphate. After approximately 7 months in the OLE receiving the lower daily dose of 8 mg BID of CTP-543, the subject continued to substantially maintain hair regrowth, with a SALT score of 7.92.

[2H]C1([2H])C([C@@H](CC#N)n2cc(-c3ncnc4[nH]ccc34)cn2)C([2H])([2H])C([2H])([2H])C1([2H])[2H] [CTP-543, (R)-3-(4-(7H-pyrrolo[2,3-d]pyrimidin-4-yl)-1H-pyrazol-1-yl)-3-(cyclopentyl-2,2,3,3,4,4,5,5-d8)propanenitrile]
Acne, patients (%) ([1]; 4 mg twice daily): 4 (13.8%)
Blood creatine phosphokinase increased, patients (%) ([1]; 4 mg twice daily): 3 (10.3%)
Cough, patients (%) ([1]; 4 mg twice daily): 4 (13.8%)
Diarrhoea, patients (%) ([1]; 4 mg twice daily): 3 (10.3%)
Folliculitis, patients (%) ([1]; 4 mg twice daily): 3 (10.3%)
Headache, patients (%) ([1]; 4 mg twice daily): 5 (17.2%)
LDL increase, patients (%) ([1]; 4 mg twice daily): 0
Nasopharyngitis, patients (%) ([1]; 4 mg twice daily): 3 (10.3%)
Nausea, patients (%) ([1]; 4 mg twice daily): 4 (13.8%)
Oroharyngeal pain, patients (%) ([1]; 4 mg twice daily): 3 (10.3%)
Upper respiratory tract infection, patients (%) ([1]; 4 mg twice daily): 2 (6.9%)
Acne, patients (%) ([1]; 8 mg twice daily): 4 (10.5%)
Blood creatine phosphokinase increased, patients (%) ([1]; 8 mg twice daily): 2 (5.3%)
Cough, patients (%) ([1]; 8 mg twice daily): 1 (2.6%)
Diarrhoea, patients (%) ([1]; 8 mg twice daily): 1 (2.6%)
Folliculitis, patients (%) ([1]; 8 mg twice daily): 2 (5.3%)
Headache, patients (%) ([1]; 8 mg twice daily): 10 (26.3%)
LDL increase, patients (%) ([1]; 8 mg twice daily): 4 (10.5%)
Nasopharyngitis, patients (%) ([1]; 8 mg twice daily): 3 (7.9%)
Nausea, patients (%) ([1]; 8 mg twice daily): 4 (10.5%)
Oroharyngeal pain, patients (%) ([1]; 8 mg twice daily): 2 (5.3%)
Upper respiratory tract infection, patients (%) ([1]; 8 mg twice daily): 2 (5.3%)
Acne, patients (%) ([1]; 12 mg twice daily): 6 (16.7%)
Blood creatine phosphokinase increased, patients (%) ([1]; 12 mg twice daily): 1 (2.8%)
Cough, patients (%) ([1]; 12 mg twice daily): 2 (5.6%)
Diarrhoea, patients (%) ([1]; 12 mg twice daily): 0
Folliculitis, patients (%) ([1]; 12 mg twice daily): 1 (2.8%)
Headache, patients (%) ([1]; 12 mg twice daily): 7 (19.4%)
LDL increase, patients (%) ([1]; 12 mg twice daily): 0
Nasopharyngitis, patients (%) ([1]; 12 mg twice daily): 9 (25.0%)
Nausea, patients (%) ([1]; 12 mg twice daily): 1 (2.8%)
Oroharyngeal pain, patients (%) ([1]; 12 mg twice daily): 1 (2.8%)
Upper respiratory tract infection, patients (%) ([1]; 12 mg twice daily): 7 (19.4%)
serious adverse events ([1]; 4, 8, 12 mg BID, 24 weeks): no serious adverse events
tolerability of treatment ([1]; 4, 8, 12 mg BID, 24 weeks): generally well-tolerated
Grade 3/4 hematology events ([1]; preliminary analysis, total, distributed equally across placebo, 4 mg and 8 mg groups): 3
separation from placebo ([2]; 4 mg BID, all measures): failed to separate from placebo on all measures
patients achieving a ≥50% reduction in overall SALT score ([2]; 4 mg BID, week 24, vs 8.6% placebo (not significant)): 21%
difference from placebo on SALT measures ([2]; 8 mg BID and 12 mg BID, week 24): significantly different from placebo on all SALT measures
patients achieving a ≥90% reduction in overall SALT score ([2]; 8 mg BID, vs 2% placebo (p<0.05)): 16%
patients achieving a ≥75% reduction in overall SALT score ([2]; 8 mg BID, vs 7% placebo (p<0.05)): 29%
patients achieving a ≥50% reduction in overall SALT score ([2]; 8 mg BID, week 24, vs 8.6% placebo (p<0.001)): 47%
effect of 12 mg BID compared to 8 mg BID ([2]; 12 mg BID vs 8 mg BID): numerically superior and generally produced faster onset and greater effect
patients achieving a ≥90% reduction in overall SALT score ([2]; 12 mg BID, vs 2% placebo (p<0.001)): 36%
patients achieving a ≥75% reduction in overall SALT score ([2]; 12 mg BID, vs 7% placebo (p<0.001)): 42%
patients achieving a ≥50% reduction in overall SALT score ([2]; 12 mg BID, week 24, vs 8.6% placebo (p<0.001)): 58%
start of significant changes in SALT score compared to placebo ([2]; 12 mg and 8 mg cohorts, p<0.05): 12 weeks
difference of 12 mg BID and 8 mg BID dose groups from 4 mg BID dose group ([2]; p<0.05): significantly different
SALT score prior to dose reduction ([3]; one subject, 24 mg QD for approximately 9 months): zero
SALT score after dose reduction ([3]; same subject, approximately 7 months at 8 mg BID after 24 mg QD): 7.92
